What was measured:
Type in all cases: functional
OVCAR-3 = assay: Effective dose to show cytotoxicity against ovarian cancer OVCAR-3 cell line was determined; conditions: Homo sapiens, read-out: ED50 (the source's name)
IGROV-1 [1] = assay: Concentration for 50% cell kill against ovarian cancer IGROV 1 cell line was determined; conditions: Homo sapiens, read-out: LC50 (the source's name)
T47D [2] = assay: Concentration for 50% cell kill against breast cancer T-47D cell line was determined; conditions: Homo sapiens, read-out: LC50 (the source's name)
OVCAR-8 [3] = assay: Cytotoxicity exhibited by the compound for total growth inhibition of ovarian cancer OVCAR-8 cell line; conditions: Homo sapiens
CCRF-CEM [4] = assay: Cytotoxicity exhibited by the compound for total growth inhibition of leukemia CCRF-CEM cell line; conditions: Homo sapiens
NCI-H522 [5] = assay: Cytotoxicity exhibited by the compound for total growth inhibition of non-small cell lung cancer NCI-H522 cell line; conditions: Homo sapiens
HL-60 = assay: Cytotoxicity exhibited by the compound for total growth inhibition of leukemia HL-60 (TB) cell line; conditions: Homo sapiens
SR = assay: Effective dose to show cytotoxicity against leukemia SR cell line was determined; conditions: Homo sapiens, read-out: ED50 (the source's name)
COLO 205 [6] = assay: Cytotoxicity exhibited by the compound for total growth inhibition of colon cancer COLO 205 cell line; conditions: Homo sapiens
LOX IMVI [7] = assay: Effective dose to show cytotoxicity against melanomaLOX IMVI cell line was determined; conditions: Homo sapiens, read-out: ED50 (the source's name)
NCI-H322M [8] = assay: The compound was evaluated for cytotoxicity against NCI-H322M non-small cell lung cancer cell line; conditions: Homo sapiens
NCI-H23 = assay: Cytotoxicity exhibited by the compound for total growth inhibition of non-small cell lung cancer NCI-H23 cell line; conditions: Homo sapiens
SN12C [9] = assay: Cytotoxicity exhibited by the compound for total growth inhibition of renal cancer SN12C cell line; conditions: Homo sapiens
DU-145 [10] = assay: Cytotoxicity exhibited by the compound for total growth inhibition of prostate cancer DU-145 cell line; conditions: Homo sapiens
LOX IMVI [11] = assay: Cytotoxicity exhibited by the compound for total growth inhibition of melanoma LOX IMVI cell line; conditions: Homo sapiens
K562 [12] = assay: Concentration for 50% cell kill against leukemia K-562 cell line was determined; conditions: Homo sapiens, read-out: LC50 (the source's name)
HCT-116 [13] = assay: The compound was evaluated for cytotoxicity against HCT116 colon cancer cell line; conditions: Homo sapiens
MOLT-4 [14] = assay: Concentration for 50% cell kill against leukemia MOLT-4 cell line was determined; conditions: Homo sapiens, read-out: LC50 (the source's name)
COLO 205 [15] = assay: Concentration for 50% cell kill against colon cancer COLO 205 cell line was determined; conditions: Homo sapiens, read-out: LC50 (the source's name)
Malme-3M [16] = assay: Effective dose to show cytotoxicity against melanoma MALME-3M cell line was determined; conditions: Homo sapiens, read-out: ED50 (the source's name)
RXF 393 [17] = assay: Concentration for 50% cell kill against renal cancer RXF 393 cell line was determined; conditions: Homo sapiens, read-out: LC50 (the source's name)
M14 [18] = assay: Effective dose to show cytotoxicity against melanoma M14 cell line was determined; conditions: Homo sapiens, read-out: ED50 (the source's name)
CAKI-1 [19] = assay: Concentration for 50% cell kill against renal cancerCAKI-1 cell line was determined; conditions: Homo sapiens, read-out: LC50 (the source's name)
SNB-75 = assay: Effective dose to show cytotoxicity against CNS cancer SNB-75 cell line was determined; conditions: Homo sapiens, read-out: ED50 (the source's name)
DU-145 [20] = assay: Concentration for 50% cell kill against prostate cancerDU-145 cell line was determined; conditions: Homo sapiens, read-out: LC50 (the source's name)
K562 [21] = assay: Cytotoxicity exhibited by the compound for total growth inhibition of leukemia K-562 cell line; conditions: Homo sapiens
CAKI-1 [22] = assay: The compound was evaluated for cytotoxicity against CAKI-1 renal cancer cell line; conditions: Homo sapiens
NCI-H322M [23] = assay: Effective dose to show cytotoxicity against non-small cell lung cancer NCI-H322M cell line was determined; conditions: Homo sapiens, read-out: ED50 (the source's name)
KM12 = assay: Concentration for 50% cell kill against colon cancer KM-12 cell line was determined; conditions: Homo sapiens, read-out: LC50 (the source's name)
HCT-116 [24] = assay: Concentration for 50% cell kill against colon cancer HCT116 cell line was determined; conditions: Homo sapiens, read-out: LC50 (the source's name)
NCI-H522 [25] = assay: Concentration for 50% cell kill against non-small cell lung cancer NCI-H522 cell line was determined; conditions: Homo sapiens, read-out: LC50 (the source's name)
Malme-3M [26] = assay: Cytotoxicity exhibited by the compound for total growth inhibition of melanoma MALME-3M cell line; conditions: Homo sapiens
DU-145 [27] = assay: Effective dose to show cytotoxicity against prostate cancer DU-145 cell line was determined; conditions: Homo sapiens, read-out: ED50 (the source's name)
T47D [28] = assay: Effective dose to show cytotoxicity against breast cancer T-47D cell line was determined; conditions: Homo sapiens, read-out: ED50 (the source's name)
MOLT-4 [29] = assay: Cytotoxicity exhibited by the compound for total growth inhibition of leukemia MOLT-4 cell line; conditions: Homo sapiens
IGROV-1 [30] = assay: Cytotoxicity exhibited by the compound for total growth inhibition of ovarian cancer IGROV 1 cell line; conditions: Homo sapiens
RPMI-8226 = assay: Effective dose to show cytotoxicity against leukemia RPMI-8226 cell line was determined; conditions: Homo sapiens, read-out: ED50 (the source's name)
SN12C [31] = assay: Effective dose to show cytotoxicity against renal cancer SN12C cell line was determined; conditions: Homo sapiens, read-out: ED50 (the source's name)
NCI-H322M [32] = assay: Cytotoxicity exhibited by the compound for total growth inhibition of non-small cell lung cancer NCI-H322M cell line; conditions: Homo sapiens
RXF 393 [33] = assay: Effective dose to show cytotoxicity against renal cancer RXF 393 cell line was determined; conditions: Homo sapiens, read-out: ED50 (the source's name)
T47D [34] = assay: Cytotoxicity exhibited by the compound for total growth inhibition of breast cancer T-47D cell line; conditions: Homo sapiens
CCRF-CEM [35] = assay: Concentration for 50% cell kill against leukemia CCRF-CEM cell line was determined; conditions: Homo sapiens, read-out: LC50 (the source's name)
OVCAR-8 [36] = assay: Concentration for 50% cell kill against ovarian cancerOVCAR-8 cell line was determined; conditions: Homo sapiens, read-out: LC50 (the source's name)
SNB-19 = assay: Effective dose to show cytotoxicity against CNS cancer SNB-19 cell line was determined; conditions: Homo sapiens, read-out: ED50 (the source's name)
M14 [37] = assay: Cytotoxicity exhibited by the compound for total growth inhibition of melanoma M14 cell line; conditions: Homo sapiens
U-251 = assay: Concentration for 50% cell kill against CNS cancer U251 cell line was determined; conditions: Homo sapiens, read-out: LC50 (the source's name)
HCT-116 [38] = assay: Effective dose to show cytotoxicity against colon cancer HCT116 cell line was determined; conditions: Homo sapiens, read-out: ED50 (the source's name)

## Cc1c2ccncc2c(C)c2c1[nH]c1ccc(CO)cc12
OVCAR-3
  EC50: 700 nM
IGROV-1 [1]
  CC50: 62000 nM
T47D [2]
  CC50: 78200 nM
OVCAR-8 [3]
  TGI: 11300 nM
CCRF-CEM [4]
  TGI: 1010 nM
NCI-H522 [5]
  TGI: 2950 nM
HL-60
  TGI: 110 nM
SR
  EC50: 40 nM
COLO 205 [6]
  TGI: 2200 nM
LOX IMVI [7]
  EC50: 370 nM
NCI-H322M [8]
  GI50: 620 nM
NCI-H23
  TGI: 9440 nM
SN12C [9]
  TGI: 3470 nM
DU-145 [10]
  TGI: 11900 nM
LOX IMVI [11]
  TGI: 3030 nM
K562 [12]
  CC50: > 100000 nM
HCT-116 [13]
  GI50: 50 nM
MOLT-4 [14]
  CC50: 4090 nM
COLO 205 [15]
  CC50: 10200 nM
Malme-3M [16]
  EC50: 640 nM
RXF 393 [17]
  CC50: 9430 nM
M14 [18]
  EC50: 600 nM
CAKI-1 [19]
  CC50: 52600 nM
SNB-75
  EC50: 490 nM
DU-145 [20]
  CC50: 35000 nM
K562 [21]
  TGI: 110 nM
CAKI-1 [22]
  GI50: 370 nM
NCI-H322M [23]
  EC50: 620 nM
KM12
  CC50: 7380 nM
HCT-116 [24]
  CC50: > 100000 nM
NCI-H522 [25]
  CC50: > 100000 nM
Malme-3M [26]
  TGI: 7350 nM
DU-145 [27]
  EC50: 1290 nM
T47D [28]
  EC50: 1420 nM
MOLT-4 [29]
  TGI: 40 nM
IGROV-1 [30]
  TGI: 11700 nM
RPMI-8226
  EC50: 30 nM
SN12C [31]
  EC50: 220 nM
NCI-H322M [32]
  TGI: 11500 nM
RXF 393 [33]
  EC50: 1610 nM
T47D [34]
  TGI: 18400 nM
CCRF-CEM [35]
  CC50: > 100000 nM
OVCAR-8 [36]
  CC50: 55200 nM
SNB-19
  EC50: 210 nM
M14 [37]
  TGI: 3650 nM
U-251
  CC50: > 100000 nM
HCT-116 [38]
  EC50: 50 nM

From ChEMBL document CHEMBL1129835, “Selective cytotoxicity of certain 9-substituted ellipticines for leukemia cells in a variety of leukemia cell cultures” (1997)
